From patent publication US9834542B2, “LXR modulators” (BRISTOL-MYERS SQUIBB COMPANY, priority 2013, dated 2017)

Biological target: T1, LXRβ (Homo sapiens, UniProt P55055)
T1 construct: Co-transfection expression plasmids, comprising full-length LXRα (pCMX-h LXRα[…] or LXRβ (pCMX-hLXRβ)); expressed in transfected cells; host or cells: CV-1 African Green Monkey Kidney Cells
T1 sequence (P55055 1-460): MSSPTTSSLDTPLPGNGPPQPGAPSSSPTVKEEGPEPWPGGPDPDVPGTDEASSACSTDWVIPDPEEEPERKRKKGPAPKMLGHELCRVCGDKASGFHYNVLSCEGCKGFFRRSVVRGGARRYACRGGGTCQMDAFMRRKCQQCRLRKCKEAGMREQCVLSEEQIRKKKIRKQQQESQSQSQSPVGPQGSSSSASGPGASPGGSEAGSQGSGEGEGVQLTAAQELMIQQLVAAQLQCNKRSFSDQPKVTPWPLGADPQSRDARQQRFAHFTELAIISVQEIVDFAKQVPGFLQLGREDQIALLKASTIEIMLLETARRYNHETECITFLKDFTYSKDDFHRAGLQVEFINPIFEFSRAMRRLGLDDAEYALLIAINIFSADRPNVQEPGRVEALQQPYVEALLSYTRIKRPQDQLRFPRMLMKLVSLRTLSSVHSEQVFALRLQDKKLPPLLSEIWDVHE
T1 sequence (P19793 1-462 partner): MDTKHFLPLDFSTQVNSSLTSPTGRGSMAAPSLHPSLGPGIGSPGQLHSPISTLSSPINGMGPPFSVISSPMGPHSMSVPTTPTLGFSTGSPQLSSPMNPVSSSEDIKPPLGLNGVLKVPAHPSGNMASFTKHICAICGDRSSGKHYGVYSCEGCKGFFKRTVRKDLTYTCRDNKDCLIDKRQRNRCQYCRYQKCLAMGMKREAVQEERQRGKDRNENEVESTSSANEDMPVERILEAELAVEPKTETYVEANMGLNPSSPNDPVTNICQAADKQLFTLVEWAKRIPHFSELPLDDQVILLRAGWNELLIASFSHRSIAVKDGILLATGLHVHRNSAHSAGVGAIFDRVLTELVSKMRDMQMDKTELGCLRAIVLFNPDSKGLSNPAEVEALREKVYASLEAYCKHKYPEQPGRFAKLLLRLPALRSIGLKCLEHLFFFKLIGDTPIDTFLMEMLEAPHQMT
Test: Co-transfection assay (LXRE luciferase reporter), LXRβ
Format: cell-based
Conditions: for EC50: CV-1 cells transfected with pCMX-hLXRβ and LXREx1-Tk-Luciferase, 20 hours incubation; for Emax: LXRβ co-transfection, relative to high control 1-(2,4-difluorobenzyl)-2-oxo-6-(4-phenoxyphenyl)-4-(trifluoromethyl)-1,2-dihydropyridine-3-carbonitrile, read-out: % Efficacy
In short: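 Cell-based LXRβ agonism measured as LXRE-luciferase induction in transiently transfected CV-1 cells after 20 h treatment. Potency is the curve-fit EC50; efficacy is expressed as percent of a full-agonist control's maximal response.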

| SMILES | EC50 [nM] | Emax [%] |
| --- | --- | --- |
| Cc1nc(-c2cc(-c3cccc([S+](C)[O-])c3)ccc2-n2cc(C(F)(F)F)nc2C)c(-c2ccc(OC(F)(F)F)cc2)o1 (stereo not shown) [Example 533, 2-methyl-4-(4-(2-methyl-4-(trifluoromethyl)-1H-imidazol-1-yl)-3′-(methylsulfinyl)-[1,1′-biphenyl]-3-yl)-5-(4-(trifluoromethoxy)phenyl)oxazole] | 233 | 73 |
| Cc1cc(-c2cnnn2-c2cc(-c3cccc(S(C)(=O)=O)c3)ccc2-n2cc(C(F)(F)F)nc2C)ccc1OC(F)(F)F [Example 20, 1-{3′-(methylsulfonyl)-4-[2-methyl-4-(trifluoromethyl)-1H-imidazol-1-yl]biphenyl-3-yl}-5-{3-methyl-4-[(trifluoromethyl)oxy]phenyl}-1H-1,2,3-triazole] | 130 | 93 |
| COc1ncc(-c2oc(C)nc2-c2cc(-c3cc(F)c(CO)c(S(C)(=O)=O)c3)ccc2-n2cc(Cl)nc2C)cc1F [Example 465, (4′-(4-chloro-2-methyl-1H-imidazol-1-yl)-3-fluoro-3′-(5-(5-fluoro-6-methoxypyridin-3-yl)-2-methyloxazol-4-yl)-5-(methylsulfonyl)biphenyl-4-yl)methanol] | 240 | 45 |
| Cc1nc(C(F)(F)F)cn1-c1ccc(-c2ccc(CO)c(S(C)(=O)=O)c2)cc1-c1nc(CC(C)O)oc1-c1ccc(OC(F)(F)F)cc1 (stereo not shown) [Example 535, 1-(4-(4′-(hydroxymethyl)-4-(2-methyl-4-(trifluoromethyl)-1H-imidazol-1-yl)-3'-(methylsulfonyl)-[1,1′-biphenyl]-3-yl)-5-(4-(trifluoromethoxy)phenyl)oxazol-2-yl)propan-2-ol] | 617 | 62 |
| CS(=O)(=O)c1cccc(-c2ccc(-n3cc(C(F)(F)F)nc3C(F)F)c(-n3nncc3-c3ccc(Cl)cc3)c2)c1 [Example 225, 5-(4-chlorophenyl)-1-(4-(2-(difluoromethyl)-4-(trifluoromethyl)-1H-imidazol-1-yl)-3′-(methylsulfonyl)-[1,1′-biphenyl]-3-yl)-1H-1,2,3-triazole] | 1100 | 91 |
| Cc1nc(-c2cc(-c3cc(F)c(CO)c(S(C)(=O)=O)c3)ccc2-n2cc(C(F)(F)F)nc2C)c(-c2ccc3c(c2)OCCO3)o1 [Example 444, (3′-(5-(2,3-dihydrobenzo[b][1,4]dioxin-6-yl)-2-methyloxazol-4-yl)-3-fluoro-4′-(2-methyl-4-(trifluoromethyl)-1H-imidazol-1-yl)-5-(methylsulfonyl)biphenyl-4-yl)methanol] | 125 | 74 |
| Cc1nc(-c2cc(-c3cccc(S(C)(=O)=O)c3)ccc2-n2cc(C(F)(F)F)nc2C)c(-c2ccc(OC(F)F)cc2Cl)o1 [Example 396, 5-(2-chloro-4-(difluoromethoxy)phenyl)-2-methyl-4-(4-(2-methyl-4-(trifluoromethyl)-1H-imidazol-1-yl)-3′-(methylsulfonyl)biphenyl-3-yl)oxazole] | 34 | 71 |
| Cc1nc(-c2cc(-c3cccc(S(C)(=O)=O)c3)ccc2-n2cc(C(F)(F)F)nc2C)c(-c2ccc(Cl)nc2)o1 [Example 550, 5-(6-chloropyridin-3-yl)-2-methyl-4-(4-(2-methyl-4-(trifluoromethyl)-1H-imidazol-1-yl)-3′-(methylsulfonyl)-[1,1′-biphenyl]-3-yl)oxazole] | 625 | 85 |
| Cc1nc(C(C)(F)F)cn1-c1ccc(-c2cccc(S(C)(=O)=O)c2)cc1-c1ocnc1-c1ccc(OC(F)(F)F)cc1 [Example 362, 5-{4-[4-(1,1-difluoroethyl)-2-methyl-1H-imidazol-1-yl]-3′-(methylsulfonyl)biphenyl-3-yl}-4-{4-[(trifluoromethyl)oxy]phenyl}-1,3-oxazole] | 691 | 75 |
| Cc1nc(C(F)(F)F)cn1-c1ccc(-c2cccc(S(C)(=O)=O)c2)cc1-n1nncc1-c1ccc2[nH]ccc2c1 [Example 45, 5-(1-{3′-(methylsulfonyl)-4-[2-methyl-4-(trifluoromethyl)-1H-imidazol-1-yl]biphenyl-3-yl}-1H-1,2,3-triazol-5-yl)-1H-indole] | 1840 | 53 |
| Cc1nc(-c2cc(-c3cc(F)c(CO)c(S(C)(=O)=O)c3)ccc2-n2cc(C(F)(F)F)nc2C)c(-c2cccc(OC(F)(F)F)c2)o1 [Example 545, (3-fluoro-4′-(2-methyl-4-(trifluoromethyl)-1H-imidazol-1-yl)-3′-(2-methyl-5-(3-(trifluoromethoxy)phenyl)oxazol-4-yl)-5-(methylsulfonyl)-[1,1′-biphenyl]-4-yl)methanol] | 38 | 32 |
| Cc1nc(C(F)(F)F)cn1-c1ccc(-c2cccc(S(C)(=O)=O)c2)cc1-n1nncc1-c1ccc(F)c(F)c1 [Example 34, 5-(3,4-difluorophenyl)-1-{3′-(methylsulfonyl)-4-[2-methyl-4-(trifluoromethyl)-1H-imidazol-1-yl]biphenyl-3-yl}-1H-1,2,3-triazole] | 661 | 94 |
| Cc1nc(C(F)(F)F)cn1-c1ccc(-c2cc(Cl)c(CO)c(S(C)(=O)=O)c2)cc1-n1nncc1-c1ccc(Cl)cc1 [Example 70, {3-chloro-3′-[5-(4-chlorophenyl)-1H-1,2,3-triazol-1-yl]-5-(methylsulfony)-4′-[2-methyl-4-(trifluoromethyl)-1H-imidazol-1-yl]biphenyl-4-yl}methanol] | 361 | 40 |
| Cc1nc(C(F)(F)F)cn1-c1ccc(-c2cccc(C(C)(C)C(N)=O)c2)cc1-n1nncc1C(=O)c1ccc(C(F)(F)F)cc1 [Example 135, 2-methyl-2-{4′-[2-methyl-4-(trifluoromethyl)-1H-imidazol-1-yl]-3′-(5-{[4-(trifluoromethyl)phenyl]carbonyl}-1H-1,2,3-triazol-1-yl)biphenyl-3-yl}propanamide] | 886 | 70 |
| Cc1nc(-c2cc(-c3cccc(S(C)(=O)=O)c3)ccc2-n2cc(C(F)(F)F)nc2C)c(-c2ccc3c(c2)CC(C)(C)O3)o1 [Example 419, 5-(2,2-dimethyl-2,3-dihydrobenzofuran-5-yl)-2-methyl-4-(4-(2-methyl-4-(trifluoromethyl)-1H-imidazol-1-yl)-3′-(methylsulfonyl)biphenyl-3-yl)oxazole] | 145 | 66 |
| Cc1nc(-c2cc(-c3cccc(S(C)(=O)=O)c3)ccc2-n2cc(C(F)(F)F)nc2C)c(-c2ccc(F)c(F)c2)o1 [Example 511, 5-(3,4-difluorophenyl)-2-methyl-4-(4-(2-methyl-4-(trifluoromethyl)-1H-imidazol-1-yl)-3′-(methylsulfonyl)biphenyl-3-yl)oxazole] | 115 | 79 |
| Cc1nc(-c2cc(-c3cccc(S(=O)(=O)C4CC4)c3)ccc2-n2cc(C(F)(F)F)nc2C)c(-c2ccc3c(c2)OC(F)(F)O3)o1 [Example 416] | 30 | 76 |
| Cc1nc(C(F)(F)F)cn1-c1ccc(-c2cc(F)c(CO)c(S(C)(=O)=O)c2)cc1-c1ocnc1Cc1ccc(Cl)cc1 [Example 633, (3′-(4-(4-chlorobenzyl)oxazol-5-yl)-3-fluoro-4′-(2-methyl-4-(trifluoromethyl)-1H-imidazol-1-yl)-5-(methylsulfonyl)-[1,1′-biphenyl]-4-yl)methanol] | 161 | 66 |
| Cc1nc(C(F)(F)F)cn1-c1ccc(-c2cccc(S(C)(=O)=O)c2)cc1-n1nncc1C1(c2ccc(Cl)cc2)CC1 [Example 112, 5-[1-(4-chlorophenyl)cyclopropyl]-1-{3′-(methylsulfonyl)-4-[2-methyl-4-(trifluoromethyl)-1H-imidazol-1-yl]biphenyl-3-yl}-1H-1,2,3-triazole] | 973 | 53 |
| Cc1nc(-c2ccccc2C(F)(F)F)c(-c2cc(-c3cc(F)c(CO)c(S(C)(=O)=O)c3)ccc2-n2cc(C(F)(F)F)nc2C)o1 [Example 630, (3-fluoro-3′-(2-methyl-4-(2-(trifluoromethyl)phenyl)oxazol-5-yl)-4′-(2-methyl-4-(triftuoromethyl)-1H-imidazol-1-yl)-5-(methylsulfonyl)-[1,1′-biphenyl]-4-yl)methanol] | 103 | 30 |
